The assay relates to human dermal papilla cells. Put plainly: cells. The following applies: Human dermal papilla cell, read-out: viability of human dermal papilla cells.

Results on one molecule are retold here after US20230173008A1, “Composition for preventing hair loss or promoting hair growth comprising extract of above-ground part of carrots” (DAEBONG LS, LTD, priority 2020, published 2023).

Broadly, the viability is a read-out of living cells in per cent, often relative to untreated cells.

Read-outs that look alike come from different tables or passages of the source.

Experimental: Human follicle dermal papilla cells were purchased from PromoCell Co., and a human follicle dermal papilla cell growth medium containing fetal calf serum, bovine pituitary extract, basic fibroblast growth factor and insulin was used and cultured at 37° C. and 5% CO2 incubator.
When the cultured human dermal papilla cells were dispensed in a 48 well plate at 1 × 10^4 cell/mL, and when the amount reached 80% or more, the extract of Example was treated at the concentrations shown in Table 2 below. The positive control group was treated with minoxidil at concentrations of 10 and 50 µM. After culturing the cells for 24, 48, and 72 hours, 200 µL of a 0.5 mg/mL solution of MTT diluted in the medium were added and cultured at 37° C. for 4 hours. After removing the solution, adding 200 µL of DMSO, and transferring 100 µL to a 96 well plate, absorbance was measured at 585 nm using a microplate reader. The average absorbance value for each sample group was obtained, and the cell viability was evaluated by comparing the average absorbance value with the absorbance value of the control group.

Take `Nc1cc(N2CCCCC2)nc(N)[n+]1[O-]` [Positive control group, minoxidil]: the viability at 10 µM runs as follows: (24 h) 104%; (48 h) 107%; (72 h) 115%. In addition, the viability at 50 µM runs as follows: (24 h) 107%; (48 h) 116%; (72 h) 125%.
